Columns and labels:
[1] = test system: LAMP reaction; experiment: LAMP amplification activity in the presence of lytic agents / lytic peptides; format: biochemical; details: for inhibiting effect on the LAMP amplification efficiency: 5 μM antimicrobial peptide in LAMP reaction
Description: Loop-mediated isothermal amplification activity in the presence of different lytic agents. Percentage of amplification activity in the presence of 0.1% polyethylene glycol p-(1,1,3,3-tetramethylbutyl)-phenyl ether, 0.1 mg/ml lysozyme (with or without 0.1% polyethylene glycol p-(1,1,3,3-tetramethylbutyl)-phenyl ether or 1 mM EDTA) or alkaline lysis components.
Loop-mediated isothermal amplification activity in the presence of different lytic peptides. Percentage of amplification activity in the presence of 5 μM antimicrobial peptides.

[2] = test system: E. coli; experiment: Loop-mediated isothermal amplification directly from E. coli cell lysates after pretreatment of urine spiked E. coli; format: cell-based, Escherichia coli
Description: Loop-mediated isothermal amplification directly from E. coli cell lysates. Isothermal amplification after pretreatment of urine spiked E. coli with different lysate preparation techniques. Lysozyme was used at 1 mg/ml concentration, polyethylene glycol p-(1,1,3,3-tetramethylbutyl)-phenyl ether at 1% and peptides at 50 μM concentration for the biological sample treatment. All sample pretreatments were performed for 5 min at RT° C. (except for heat treatment that was incubated at 95° C.).
A biological sample containing E. coli bacteria (urine sample in FIG. 6) is treated with 50 μM antimicrobial peptide belonging to but not limited to cecropin group (Cecropin P1 or SB-37 in FIG. 6) for 5 min at RT° C. 5 μl of the urine sample is added directly to the loop-mediated amplification reaction, so that final reaction volume is 50 μl and final components concentration as follows: 0.2 μM F3 primer, 0.2 μM B3 primer, 1.6 μM BIP primer, 1.6 μM FIP primer, 0.8 μM LF primer, 0.8 μM LB primer, 8 mM MgSO4, 1.4 mM dNTP, 0.8M betain, 20 mM Tris-HCl pH 8.8, 10 mM KCl, 10 mM (NH4)2SO4, 0.1% (v/v) Tween 20 and 16 units of Bsm polymerase.

Compound: CC[C@H](C)[C@H](NC(=O)CN)C(=O)NCC(=O)N[C@@H](C)C(=O)N[C@H](C(=O)N[C@@H](CC(C)C)C(=O)N[C@@H](CCCCN)C(=O)N[C@H](C(=O)N[C@@H](CC(C)C)C(=O)N[C@H](C(=O)N[C@H](C(=O)NCC(=O)N[C@@H](CC(C)C)C(=O)N1CCC[C@H]1C(=O)N[C@@H](C)C(=O)N[C@@H](CC(C)C)C(=O)N[C@H](C(=O)N[C@@H](CO)C(=O)N[C@@H](Cc1c[nH]c2ccccc12)C(=O)N[C@H](C(=O)N[C@@H](CCCCN)C(=O)N[C@@H](CCCNC(=N)N)C(=O)N[C@@H](CCCCN)C(=O)N[C@@H](CCCNC(=N)N)C(=O)N[C@@H](CCC(N)=O)C(=O)N[C@@H](CCC(N)=O)C(N)=O)[C@@H](C)CC)[C@@H](C)CC)[C@@H](C)O)[C@@H](C)O)C(C)C)C(C)C [melittin]
- inhibiting effect on the LAMP amplification efficiency [1]: inhibiting effect comparable to alkaline lysis components

Compound: Bombolitin III
- inhibiting effect on the LAMP amplification efficiency [1]: only mild inhibition

Compound: Cecropin P1 (SWLSKTAKKLENSAKKRISEGIAIAIQGGPR; listed as Ascaris suum)
- increase of the target DNA available for the isothermal amplification ([2]; 50 μM peptide, 5 min at RT, urine spiked E. coli, LAMP (FIG. 6)): 6 times
- effect of sample pre-treatment on isothermal amplification efficiency ([2]; urine sample, peptide pre-treatment (FIG. 6)): enhancing effect
- inhibiting effect on the LAMP amplification efficiency [1]: lowest inhibitory effect
- inhibiting effect on the LAMP amplification efficiency ([1]; listed as P1): only mild inhibition

Compound: MSI-78
- inhibiting effect on the LAMP amplification efficiency [1]: quite severe inhibiting effect

Compound: MSI-594
- inhibiting effect on the LAMP amplification efficiency [1]: quite severe inhibiting effect

Compound: lysozyme
- effect on the amplification efficiency ([1]; lysozyme alone, 0.1 mg/ml in LAMP reaction): very modest effect
- isothermal amplification efficiency ([1]; lysozyme in combination with lysis enhancing agents (polyethylene glycol p-(1,1,3,3-tetramethylbutyl)-phenyl ether or EDTA)): significantly reduced

Source: patent US20230160021A1, “METHOD FOR THE DETECTION OF A SEXUALLY TRANSMITTED INFECTIOUS PATHOGEN” (SELFDIAGNOSTICS DEUTSCHLAND GMBH, priority 2016, published 2023)
